Reference: article PMC6801405, “Discovery of 3-Arylquinoxaline Derivatives as Potential Anti-Dengue Virus Agents” (International Journal of Molecular Sciences, 2019)
Entries after “also recorded” stand apart in the source; their conditions may differ.

Columns and labels:
[1] = system: DENV2; experiment: microbe, parasite or virus in culture; assay type: cell-based, dengue virus
Method: Anti-DENV activities were determined by firefly luciferase activity.

[2] = Cytotoxicity assay (XTT method); assay type: cell-based, Human; conditions: human, mean ± SD
Method: (§1) For cytotoxicity tests, run in parallel with antiviral assays, plates at an initial density of 5 × 10^3 cells/well were treated with or without serial dilutions of test compounds. Cell viability was determined after 72 h at 37 °C in a humidified CO2 (5%) atmosphere by the (2,3-bis[2-methyloxy-4-nitro-5-sulfophenyl]-2H-tetrazolium-5-carboxanilide) (XTT) method.

[3] = system: Huh-7 cells; experiment: Cytotoxicity assay (XTT method); assay type: cell-based, Human
Method: as §1

[4] = system: DENV; experiment: DENV protein synthesis by Western blotting in Huh-7 cells; assay type: cell-based, dengue virus; conditions: 0.5, 1, 2.5 and 5 μM, three days
Method: To further confirm the anti-DENV effect of compound 19a, we treated compound 19a at indicated concentrations in Huh-7 cells for three days.
Huh-7 cells were seeded in 24-well plates at a density of 5 × 10^4 cells per well overnight and treated with indicated reagent at proper concentrations for three days. Cells were washed with cold phosphate-buffered saline (PBS) and lysed by radioimmunoprecipitation assay (RIPA) lysis buffer (50 mM Tris-HCl, pH 7.5, 150 mM NaCl, 1% Nonidet P-40, 2 mM ethylenediaminetetraacetic acid (EDTA), 1 mM ethylene glycol bis(2-aminoethyl)tetraacetic acid (EGTA), 1 mM NaVO3, 10 mM NaF, 1 mM dithiothreitol (DTT), 1 mM phenylmethylsulfonyl fluoride (PMSF), 25 μg/mL aprotinin, and 25 μg/mL leupeptin) and stored at −20 °C. The protein concentration was determined by the Bradford method. Then, 10-μg protein samples were separated by 10% SDS-PAGE and transferred onto a polyvinylidene fluoride (PVDF) membrane. The membrane was blocked with 5% non-fat dried milk and incubated with specific antibodies against GAPDH (1:10000, Genetex, Irvine, CA, USA) and COX-2 (1:1000; Cayman Chemical, Ann Arbor, ML, USA). […] The blotting signal was developed using an enhanced chemiluminescence (ECL) detection kit (PerkinElmer, Waltham, MA, USA) and was counted by the software Quantity One (Bio-Rad, Hercules, CA, USA). […]

[5] = system: COX-2 promoter; experiment: COX-2 promoter-based reporter assay (pCOX-2-Luc) in DENV-infected Huh-7 cells; assay type: cell-based, Human; conditions: increasing concentrations, three days
Method: We also used a COX-2 promoter-based reporter assay to evaluate the inhibitory effect of 19a on COX-2 at the transcriptional level. The pCOX-2-Luc, a plasmid encoding firefly luciferase under the control of the COX-2 promoter, was transfected into Huh-7 cells or DENV-infected Huh-7 cells and, then, these plasmid-transfected cells were incubated with 19a at increasing concentrations for three days.
Huh-7-DV-Fluc cells were seeded in 24-well plates at a density of 2 × 10^4 cells per well, and treated with the 3-arylquinoxaline compounds at two concentrations (1 and 10 μM) or 0.1% DMSO as control. After three days of incubation, the luciferase activity assay was performed using the Bright-Glo Luciferase assay system (Promega, Madison, WI, USA) according to the manufacturer’s instructions. […] After three days, protein and RNA levels were analyzed by Western blotting with a specific antibody as previously described respectively.
Figure 4 Inhibitory effect of 19a on DENV-induced cyclooxygenase-2 (COX-2) expression in Huh-7 cells. […] The results are expressed as the means ± standard deviations (SD) of triplicate experiments.

Question: With `COc1ccc(-c2nc3ccccc3nc2C(O)c2ccccc2)cc1` (stereo not shown) [Compound 19a, [3-(4-Methoxyphenyl)quinoxalin-2-yl](phenyl)methanol] as the compound, how does the “DENV2 % Inhibition at 10 μM” value ([1]; 10 μM, Huh-7-DV-Fluc cells, three days, mean ± SD) read?
Answer: The value was 82.71 ± 2.88%.

Question: And the “SI (selectivity index, CC50/EC50)” value ([1]; CC50 Huh-7 / EC50 DENV)?
Answer: The value was over 155.04.

Question: And the inhibition at 1 µM ([1]; Dengue virus, DENV2, 72 h, 1 μM, Huh-7-DV-Fluc cells, three days, mean ± SD)?
Answer: Its inhibition at 1 µM is 36.7 ± 3.71%.

Question: And the EC50 ([1]; Dengue virus, DENV2, DENV replication, mean ± SD, read-out: EC50 (concentration resulting in a 50% inhibition in virus production))?
Answer: Its EC50 is 1290 ± 740 nM.

Question: What about the “fold more anti-DENV activity than ribavirin” value ([1]; EC50 compared with ribavirin) of the same compound?
Answer: The value was “approximately 10 fold”.

Question: What about the viability at 72 h, 20 µM ([2]; Huh-7 cells, 20 μM, 72 h, XTT, read-out: Huh-7 Cell % viability at 20 μM) of the same compound?
Answer: The viability at 72 h, 20 µM was 99.7 ± 1.65%.

Question: What about the viability at 72 h, 200 µM ([2]; Huh-7 cells, 200 μM, 72 h, XTT, read-out: Huh-7 Cell % viability at 200 μM) of the same compound?
Answer: Its viability at 72 h, 200 µM is 85%.

Question: And the CC50 at 72 h ([2]; uninfected Huh-7 cells, read-out: CC50 (concentration causing a 50% growth inhibition of uninfected Huh-7 cells))?
Answer: Its CC50 at 72 h is over 200000 nM.

Question: And the “Huh-7 Cell % viability at 200 μM” value ([3]; 200 μM, 72 h, XTT, mean ± SD)?
Answer: The value was 85.26 ± 5.63%.

Question: What about the cytotoxicity in words ([3]; Huh-7 cells) of the same compound?
Answer: Its cytotoxicity in words is “non-cytotoxic; also recorded: no significant cell cytotoxicity”.

Question: And the “DENV protein synthesis (Western blotting)” value [4]?
Answer: The value was “dose-dependently reduced”.

Question: And the “DENV-elevated COX-2 promoter activity” value [5]?
Answer: Its value is “dose-dependently decreased”.

Question: What about the melting point of the same compound?
Answer: The melting point was 160.4 to 161.9 °C.
